Data taken from ChEMBL document CHEMBL1944578, “Synthesis and anticonvulsant activity of novel 2,6-diketopiperazine derivatives. Part 2: Perhydropyrido[1,2-a]pyrazines” (Eur J Med Chem, 2012).
Active and inactive are the calls of the source. The calls are words filed in the database; no cut-off is given here.

How the values were obtained:
Mus musculus [1] = test: Anticonvulsant activity in Carworth farms No.1 albino mouse assessed as protection against maximum electroshock at 30 mg/kg, ip measured after 0.5 hrs; format: functional, organism-based; design: dose 30 mg/kg
Mus musculus [2] = test: Anticonvulsant activity in Carworth farms No.1 albino mouse assessed as protection against maximum electroshock at 100 mg/kg, ip measured after 0.5 hrs; format: functional, organism-based; design: dose 100 mg/kg
Mus musculus [3] = test: Anticonvulsant activity in Carworth farms No.1 albino mouse assessed as protection against maximum electroshock at 300 mg/kg, ip measured after 0.5 hrs; format: functional, organism-based; design: dose 300 mg/kg
Mus musculus [4] = test: Anticonvulsant activity in Carworth farms No.1 albino mouse assessed as protection against maximum electroshock at 30 mg/kg, ip measured after 4 hrs; format: functional, organism-based; design: dose 30 mg/kg
Mus musculus [5] = test: Anticonvulsant activity in Carworth farms No.1 albino mouse assessed as protection against maximum electroshock at 100 mg/kg, ip measured after 4 hrs; format: functional, organism-based; design: dose 100 mg/kg
Mus musculus [6] = test: Anticonvulsant activity in Carworth farms No.1 albino mouse assessed as protection against maximum electroshock at 300 mg/kg, ip measured after 4 hrs; format: functional, organism-based; design: dose 300 mg/kg
Mus musculus [7] = test: Anticonvulsant activity in Carworth farms No.1 albino mouse assessed as protection against subcutaneous metrazole-induced seizures at 30 mg/kg, ip measured after 0.5 hrs; format: functional, organism-based; design: dose 30 mg/kg
Mus musculus [8] = test: Anticonvulsant activity in Carworth farms No.1 albino mouse assessed as protection against subcutaneous metrazole-induced seizures at 100 mg/kg, ip measured after 0.5 hrs; format: functional, organism-based; design: dose 100 mg/kg
Mus musculus [9] = test: Anticonvulsant activity in Carworth farms No.1 albino mouse assessed as protection against subcutaneous metrazole-induced seizures at 300 mg/kg, ip measured after 0.5 hrs; format: functional, organism-based; design: dose 300 mg/kg
Mus musculus [10] = test: Anticonvulsant activity in Carworth farms No.1 albino mouse assessed as protection against subcutaneous metrazole-induced seizures at 30 mg/kg, ip measured after 4 hrs; format: functional, organism-based; design: dose 30 mg/kg
Mus musculus [11] = test: Anticonvulsant activity in Carworth farms No.1 albino mouse assessed as protection against subcutaneous metrazole-induced seizures at 100 mg/kg, ip measured after 4 hrs; format: functional, organism-based; design: dose 100 mg/kg
Mus musculus [12] = test: Anticonvulsant activity in Carworth farms No.1 albino mouse assessed as protection against subcutaneous metrazole-induced seizures at 300 mg/kg, ip measured after 4 hrs; format: functional, organism-based; design: dose 300 mg/kg
Mus musculus [13] = test: Neurotoxicity in Carworth farms No.1 albino mouse assessed as neurological impairment at 30 mg/kg, ip measured after 0.5 hrs; format: toxicity, organism-based; design: dose 30 mg/kg, route intraperitoneal; conditions: in vivo
Mus musculus [14] = test: Neurotoxicity in Carworth farms No.1 albino mouse assessed as neurological impairment at 100 mg/kg, ip measured after 0.5 hrs; format: toxicity, organism-based; design: dose 100 mg/kg, route intraperitoneal; conditions: in vivo
Mus musculus [15] = test: Neurotoxicity in Carworth farms No.1 albino mouse assessed as neurological impairment at 300 mg/kg, ip measured after 0.5 hrs; format: toxicity, organism-based; design: dose 300 mg/kg, route intraperitoneal; conditions: in vivo
Mus musculus [16] = test: Neurotoxicity in Carworth farms No.1 albino mouse assessed as neurological impairment at 30 mg/kg, ip measured after 4 hrs; format: toxicity, organism-based; design: dose 30 mg/kg, route intraperitoneal; conditions: in vivo
Mus musculus [17] = test: Neurotoxicity in Carworth farms No.1 albino mouse assessed as neurological impairment at 100 mg/kg, ip measured after 4 hrs; format: toxicity, organism-based; design: dose 100 mg/kg, route intraperitoneal; conditions: in vivo
Mus musculus [18] = test: Neurotoxicity in Carworth farms No.1 albino mouse assessed as neurological impairment at 300 mg/kg, ip measured after 4 hrs; format: toxicity, organism-based; design: dose 300 mg/kg, route intraperitoneal; conditions: in vivo
Mus musculus [19] = test: Anticonvulsant activity in Carworth farms No.1 albino mouse assessed as protection against 6 Hz electric current-induced seizure at 100 mg/kg, ip measured after 0.25 hrs; format: functional, organism-based; design: dose 100 mg/kg
Mus musculus [20] = test: Anticonvulsant activity in Carworth farms No.1 albino mouse assessed as protection against 6 Hz electric current-induced seizure at 100 mg/kg, ip measured after 0.5 hrs; format: functional, organism-based; design: dose 100 mg/kg
Mus musculus [21] = test: Anticonvulsant activity in Carworth farms No.1 albino mouse assessed as protection against 6 Hz electric current-induced seizure at 100 mg/kg, ip measured after 1 hrs; format: functional, organism-based; design: dose 100 mg/kg
Mus musculus [22] = test: Anticonvulsant activity in Carworth farms No.1 albino mouse assessed as protection against 6 Hz electric current-induced seizure at 100 mg/kg, ip measured after 2 hrs; format: functional, organism-based; design: dose 100 mg/kg
Mus musculus [23] = test: Anticonvulsant activity in Carworth farms No.1 albino mouse assessed as protection against 6 Hz electric current-induced seizure at 100 mg/kg, ip measured after 4 hrs; format: functional, organism-based; design: dose 100 mg/kg
Mus musculus [24] = test: Neurotoxicity in Carworth farms No.1 albino mouse assessed as neurological impairment at 100 mg/kg, ip measured after 0.25 hrs; format: toxicity, organism-based; design: dose 100 mg/kg, route intraperitoneal; conditions: in vivo
Mus musculus [25] = test: Neurotoxicity in Carworth farms No.1 albino mouse assessed as neurological impairment at 100 mg/kg, ip measured after 1 hr; format: toxicity, organism-based; design: dose 100 mg/kg, route intraperitoneal; conditions: in vivo
Mus musculus [26] = test: Neurotoxicity in Carworth farms No.1 albino mouse assessed as neurological impairment at 100 mg/kg, ip measured after 2 hr; format: toxicity, organism-based; design: dose 100 mg/kg, route intraperitoneal; conditions: in vivo
Mus musculus [27] = test: Anticonvulsant activity in ip dosed Carworth farms No.1 albino mouse assessed as protection against 6 Hz electric current-induced seizure measured after 0.25 hrs; format: functional
Mus musculus [28] = species: Mus musculus; test: Anticonvulsant activity in electric shock-induced Carworth farms No.1 albino mouse assessed as time of peak effect; format: functional
Mus musculus [29] = test: Neurotoxicity in Carworth farms No.1 albino mouse assessed as inability to grasp rotarod at 300 mg/kg, ip measured after 0.5 hrs; format: toxicity, organism-based; design: dose 300 mg/kg, route intraperitoneal; conditions: in vivo
Mus musculus [30] = test: Anticonvulsant activity in ip dosed Carworth farms No.1 albino mouse assessed as protection against maximum electroshock; format: functional
Mus musculus [31] = test: Anticonvulsant activity in ip dosed Carworth farms No.1 albino mouse assessed as protection against subcutaneous metrazole-induced seizures; format: functional
[32] = Neurotoxicity in ip dosed Carworth farms No.1 albino mouse assessed as inability to grasp rotarod measured after 0.25 hrs; format: toxicity, organism-based; conditions: in vivo
Rattus norvegicus [33] = test: Anticonvulsant activity in Sprague-Dawley rat assessed as protection against maximum electroshock at 30 mg/kg, po measured after 0.25 hrs; format: functional, organism-based; design: dose 30 mg/kg
Rattus norvegicus [34] = test: Anticonvulsant activity in Sprague-Dawley rat assessed as protection against maximum electroshock at 30 mg/kg, po measured after 0.5 hrs; format: functional, organism-based; design: dose 30 mg/kg
Rattus norvegicus [35] = test: Anticonvulsant activity in Sprague-Dawley rat assessed as protection against maximum electroshock at 30 mg/kg, po measured after 1 hr; format: functional, organism-based; design: dose 30 mg/kg
Rattus norvegicus [36] = test: Anticonvulsant activity in Sprague-Dawley rat assessed as protection against maximum electroshock at 30 mg/kg, po measured after 2 hrs; format: functional, organism-based; design: dose 30 mg/kg
Rattus norvegicus [37] = test: Anticonvulsant activity in Sprague-Dawley rat assessed as protection against maximum electroshock at 30 mg/kg, po measured after 4 hrs; format: functional, organism-based; design: dose 30 mg/kg
Rattus norvegicus [38] = test: Neurotoxicity in Sprague-Dawley rat assessed as neurological impairment at 30 mg/kg, po measured after 0.25 hrs; format: toxicity, organism-based; design: dose 30 mg/kg, route oral; conditions: in vivo
Rattus norvegicus [39] = test: Neurotoxicity in Sprague-Dawley rat assessed as neurological impairment at 30 mg/kg, po measured after 0.5 hrs; format: toxicity, organism-based; design: dose 30 mg/kg, route oral; conditions: in vivo
Rattus norvegicus [40] = test: Neurotoxicity in Sprague-Dawley rat assessed as neurological impairment at 30 mg/kg, po measured after 1 hr; format: toxicity, organism-based; design: dose 30 mg/kg, route oral; conditions: in vivo
Rattus norvegicus [41] = test: Neurotoxicity in Sprague-Dawley rat assessed as neurological impairment at 30 mg/kg, po measured after 2 hrs; format: toxicity, organism-based; design: dose 30 mg/kg, route oral; conditions: in vivo
Rattus norvegicus [42] = test: Neurotoxicity in Sprague-Dawley rat assessed as neurological impairment at 30 mg/kg, po measured after 4 hrs; format: toxicity, organism-based; design: dose 30 mg/kg, route oral; conditions: in vivo
Rattus norvegicus [43] = test: Anticonvulsant activity in Sprague-Dawley rat assessed as protection against pilocarpine-induced status at 600 mg/kg, ip measured after 0.5 hrs; format: functional, organism-based; design: dose 600 mg/kg
Rattus norvegicus [44] = test: Toxicity in Sprague-Dawley rat assessed as mortality at 600 mg/kg, ip measured after 0.5 hrs; format: organism-based; design: dose 600 mg/kg, route intraperitoneal; conditions: in vivo
Rattus norvegicus [45] = test: Toxicity in Sprague-Dawley rat assessed as body weight change in unprotected animal at 600 mg/kg, ip measured after 0.5 hrs; format: organism-based; design: dose 600 mg/kg, route intraperitoneal; conditions: in vivo
Rattus norvegicus [46] = test: Toxicity in Sprague-Dawley rat assessed as body weight change in protected animals at 600 mg/kg, ip measured after 0.5 hrs; format: organism-based; design: dose 600 mg/kg, route intraperitoneal; conditions: in vivo
Mus musculus [47] = species: Mus musculus; test: Anticonvulsant activity in maximum electroshock-induced Carworth farms No.1 albino mouse assessed as time of peak effect; format: functional

Structure (SMILES): CCOC(=O)CN1C(=O)[C@H](c2ccccc2)N2CCCC[C@H]2C1=O
- Activity (Mus musculus [1]): inactive
- Activity (Mus musculus [2]): inactive
- Activity (Mus musculus [3]): inactive
- Activity (Mus musculus [4]): inactive
- Activity (Mus musculus [5]): inactive
- Activity (Mus musculus [6]): inactive
- Activity (Mus musculus [7]): inactive
- Activity (Mus musculus [8]): inactive
- Activity (Mus musculus [9]): inactive
- Activity (Mus musculus [10]): inactive
- Activity (Mus musculus [11]): inactive
- Activity (Mus musculus [12]): inactive
- Activity (Mus musculus [13]): Non-toxic
- Activity (Mus musculus [14]): Non-toxic
- Activity (Mus musculus [15]): Non-toxic
- Activity (Mus musculus [16]): Non-toxic
- Activity (Mus musculus [17]): Non-toxic
- Activity (Mus musculus [18]): Non-toxic
- Activity (Mus musculus [19]): Active
- Activity (Mus musculus [20]): Active
- Activity (Mus musculus [21]): Active
- Activity (Mus musculus [22]): inactive
- Activity (Mus musculus [23]): inactive
- Activity (Mus musculus [24]): Non-toxic
- Activity (Mus musculus [25]): Non-toxic
- Activity (Mus musculus [26]): Non-toxic
- ED50 (Mus musculus [27]): 55.3 mg/kg
- Time (Mus musculus [28]): 0.25 h

Structure (SMILES): O=C1NC(=O)[C@H](c2ccccc2)N2CCCC[C@H]12
- Activity (Mus musculus [1]): inactive
- Activity (Mus musculus [2]): Active
- Activity (Mus musculus [3]): Active
- Activity (Mus musculus [4]): inactive
- Activity (Mus musculus [5]): inactive
- Activity (Mus musculus [6]): inactive
- Activity (Mus musculus [7]): inactive
- Activity (Mus musculus [8]): inactive
- Activity (Mus musculus [9]): Active
- Activity (Mus musculus [10]): inactive
- Activity (Mus musculus [11]): inactive
- Activity (Mus musculus [12]): inactive
- Activity (Mus musculus [13]): Non-toxic
- Activity (Mus musculus [14]): Toxic
- Activity (Mus musculus [16]): Non-toxic
- Activity (Mus musculus [17]): Non-toxic
- Activity (Mus musculus [18]): Non-toxic
- Activity (Mus musculus [29]): Toxic
- ED50 (Mus musculus [30]): 95.7 mg/kg
- ED50 (Mus musculus [31]): 99.2 mg/kg
- TD50 at 0.25 h [32]: 151 mg/kg
- Activity (Rattus norvegicus [33]): inactive
- Activity (Rattus norvegicus [34]): inactive
- Activity (Rattus norvegicus [35]): inactive
- Activity (Rattus norvegicus [36]): inactive
- Activity (Rattus norvegicus [37]): inactive
- Activity (Rattus norvegicus [38]): Non-toxic
- Activity (Rattus norvegicus [39]): Non-toxic
- Activity (Rattus norvegicus [40]): Non-toxic
- Activity (Rattus norvegicus [41]): Non-toxic
- Activity (Rattus norvegicus [42]): Non-toxic
- Activity (Mus musculus [19]): Active
- Activity (Mus musculus [20]): Active
- Activity (Mus musculus [21]): inactive
- Activity (Mus musculus [22]): inactive
- Activity (Mus musculus [23]): inactive
- Activity (Mus musculus [24]): Non-toxic
- Activity (Mus musculus [25]): Non-toxic
- Activity (Mus musculus [26]): Non-toxic
- ED50 (Mus musculus [27]): 32.3 mg/kg
- Activity (Rattus norvegicus [43]): inactive
- Activity (Rattus norvegicus [44]): Toxic
- Activity (Rattus norvegicus [45]): -31 g
- Activity (Rattus norvegicus [46]): -30 g
- Time (Mus musculus [47]): 0.5 h
- Time (Mus musculus [28]): 0.25 h
